The record followed here is ChEMBL document CHEMBL3792387, “A review on ROCK-II inhibitors: From molecular modelling to synthesis” (Bioorg Med Chem Lett, 2016).

Each structure is given as a SMILES string. pIC50: −log10 of the molar value.

The nature of experiment [1]: Inhibition of PKA (unknown origin). Also noted: species or system Homo sapiens.
Experiment [2] has as its target Rho-associated protein kinase 2 (Homo sapiens, UniProt O75116). Briefly: Inhibition of ROCK-2 (unknown origin).
Experiment [3] concerns the target Rho-associated protein kinase 1 (Homo sapiens, UniProt Q13464). The experiment in a line: Inhibition of ROCK-1 (unknown origin).
Experiment [4] in a line: Inhibition of PKA (unknown origin) using cyclic AMP response element binding protein as substrate after 5 mins in presence of [gamma-32P]-ATP. Also noted: species or system Homo sapiens.

Chain of Rho-associated protein kinase 2 (O75116 whole entry): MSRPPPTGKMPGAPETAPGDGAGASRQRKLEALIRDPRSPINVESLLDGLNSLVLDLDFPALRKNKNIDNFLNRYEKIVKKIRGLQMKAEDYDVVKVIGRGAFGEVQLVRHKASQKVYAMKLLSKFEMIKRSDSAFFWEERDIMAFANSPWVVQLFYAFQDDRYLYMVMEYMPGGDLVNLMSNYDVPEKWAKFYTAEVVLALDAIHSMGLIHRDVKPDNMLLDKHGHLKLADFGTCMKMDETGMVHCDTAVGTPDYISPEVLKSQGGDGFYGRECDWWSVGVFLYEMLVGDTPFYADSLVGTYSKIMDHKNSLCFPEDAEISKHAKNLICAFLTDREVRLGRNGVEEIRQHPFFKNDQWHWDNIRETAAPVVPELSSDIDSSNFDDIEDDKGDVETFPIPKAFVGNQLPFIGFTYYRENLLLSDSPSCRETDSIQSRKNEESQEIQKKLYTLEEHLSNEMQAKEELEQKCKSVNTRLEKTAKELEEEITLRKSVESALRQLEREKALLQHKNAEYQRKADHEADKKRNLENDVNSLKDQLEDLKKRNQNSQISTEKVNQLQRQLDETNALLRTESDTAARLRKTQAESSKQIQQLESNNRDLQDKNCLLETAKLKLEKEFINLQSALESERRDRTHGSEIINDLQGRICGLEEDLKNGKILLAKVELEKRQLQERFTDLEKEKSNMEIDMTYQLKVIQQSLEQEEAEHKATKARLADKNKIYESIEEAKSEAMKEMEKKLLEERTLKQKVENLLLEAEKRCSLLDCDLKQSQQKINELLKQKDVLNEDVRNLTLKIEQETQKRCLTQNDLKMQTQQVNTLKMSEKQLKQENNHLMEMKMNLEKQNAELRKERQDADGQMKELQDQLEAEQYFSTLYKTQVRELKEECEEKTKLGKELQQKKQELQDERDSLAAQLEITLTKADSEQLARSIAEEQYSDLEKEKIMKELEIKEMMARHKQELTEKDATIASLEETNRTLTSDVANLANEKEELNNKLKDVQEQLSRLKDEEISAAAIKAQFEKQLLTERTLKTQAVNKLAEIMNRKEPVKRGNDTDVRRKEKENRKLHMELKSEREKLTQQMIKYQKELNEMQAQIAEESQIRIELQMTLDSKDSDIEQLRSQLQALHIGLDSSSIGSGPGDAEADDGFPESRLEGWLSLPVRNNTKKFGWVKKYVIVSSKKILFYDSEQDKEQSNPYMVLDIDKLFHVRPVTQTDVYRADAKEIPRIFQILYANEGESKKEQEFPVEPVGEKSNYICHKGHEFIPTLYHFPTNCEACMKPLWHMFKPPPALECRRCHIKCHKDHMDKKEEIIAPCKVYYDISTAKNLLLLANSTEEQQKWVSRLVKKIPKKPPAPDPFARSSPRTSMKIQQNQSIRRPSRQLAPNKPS
Chain of Rho-associated protein kinase 1 (Q13464 whole entry): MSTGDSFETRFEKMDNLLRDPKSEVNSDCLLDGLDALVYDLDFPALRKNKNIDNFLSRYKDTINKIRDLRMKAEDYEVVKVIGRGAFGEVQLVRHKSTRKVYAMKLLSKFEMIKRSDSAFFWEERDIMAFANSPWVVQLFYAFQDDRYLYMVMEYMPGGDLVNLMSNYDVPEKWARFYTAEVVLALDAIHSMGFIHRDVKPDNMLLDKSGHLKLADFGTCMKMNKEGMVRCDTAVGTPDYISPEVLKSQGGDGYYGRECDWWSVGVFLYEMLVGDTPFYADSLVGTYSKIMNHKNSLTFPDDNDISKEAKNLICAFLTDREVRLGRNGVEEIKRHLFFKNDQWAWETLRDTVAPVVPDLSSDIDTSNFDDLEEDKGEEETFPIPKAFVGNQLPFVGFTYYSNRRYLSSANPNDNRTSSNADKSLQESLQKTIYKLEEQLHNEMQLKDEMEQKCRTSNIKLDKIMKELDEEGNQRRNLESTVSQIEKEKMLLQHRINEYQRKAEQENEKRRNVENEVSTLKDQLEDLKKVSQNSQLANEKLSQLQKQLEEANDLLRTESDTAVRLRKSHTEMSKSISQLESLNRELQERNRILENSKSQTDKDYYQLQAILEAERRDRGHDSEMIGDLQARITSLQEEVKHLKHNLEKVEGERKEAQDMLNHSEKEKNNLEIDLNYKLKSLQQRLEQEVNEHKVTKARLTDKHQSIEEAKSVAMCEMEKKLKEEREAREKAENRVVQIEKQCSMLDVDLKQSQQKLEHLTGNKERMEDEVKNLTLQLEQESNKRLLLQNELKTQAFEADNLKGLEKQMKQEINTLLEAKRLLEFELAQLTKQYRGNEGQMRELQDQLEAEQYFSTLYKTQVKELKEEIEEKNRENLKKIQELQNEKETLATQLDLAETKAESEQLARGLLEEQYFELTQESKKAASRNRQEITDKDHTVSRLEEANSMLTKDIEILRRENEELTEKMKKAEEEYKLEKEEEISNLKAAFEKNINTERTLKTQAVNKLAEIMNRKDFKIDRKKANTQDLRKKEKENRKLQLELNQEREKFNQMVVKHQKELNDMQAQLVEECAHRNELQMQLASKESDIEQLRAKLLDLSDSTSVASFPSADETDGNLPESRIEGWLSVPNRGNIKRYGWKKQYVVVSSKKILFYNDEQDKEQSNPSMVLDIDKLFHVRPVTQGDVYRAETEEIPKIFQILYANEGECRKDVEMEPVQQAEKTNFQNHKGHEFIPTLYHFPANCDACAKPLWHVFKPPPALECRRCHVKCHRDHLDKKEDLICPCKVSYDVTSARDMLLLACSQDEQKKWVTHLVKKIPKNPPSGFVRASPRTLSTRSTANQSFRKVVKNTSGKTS

As usually defined, the pIC50 is the negative decadic logarithm of the IC50, by convention in mol/L. As for `C[C@@H](N)[C@H]1CC[C@H](C(=O)Nc2ccnc3[nH]ccc23)CC1`, the pIC50 in experiment [1] is 6.54; in experiment [2] it was 8.00; in experiment [3] it was 7.52.
On to `Cc1cncc2cccc(S(=O)(=O)N3CCCNC[C@@H]3C)c12`, for which the pIC50 in experiment [4] was 5.52.
